{"source": "paper PMC9532703", "about": "“A novel small molecule RK-019 inhibits FGFR2-amplification gastric cancer cell proliferation and induces apoptosis in vitro and in vivo” (Frontiers in Pharmacology, 2022)", "assay_in_all_cases": "Kinase selectivity panel", "format_in_all_cases": "biochemical", "settings_in_all_cases": "read-out: Inhibition(%) @ 1 µM RK-019", "key": {"[1]": {"biological_target": "T1, CK1γ1(h) (Homo sapiens, UniProt Q9HCP0)", "T1 construct": "purchased Eurofins Discovery Services (KinaseProfiler)", "procedure": "(§1) Median-inhibitory concentration (IC50) and inhibition ratio of kinases by RK-019 was assessed by Eurofins Discovery Services (Dundee, United Kingdom) using the ATP-site competition binding assay in vitro. Firstly, gradient concentration of RK-019 against FGFRs, including FGFR1, FGFR2, FGFR3, and FGFR4, were tested. IC50 value was calculate by the GraphPad Prism software (v8.4.3, GraphPad Software, California, United States). Then, to measure the selectivity prolife of RK-019, a panel of 422 recombinant human kinases was screened at a concentration of 1 µM RK-019. Kinase MAP was drawn by webtools from Cell Signaling Technology, Inc. (www.cellsignal.com)."}, "[2]": {"biological_target": "T2, PKBγ(h) (Homo sapiens, UniProt Q9Y243)", "T2 construct": "purchased Eurofins Discovery Services (KinaseProfiler)", "procedure": "as §1"}, "[3]": {"biological_target": "T3, PKCμ(h) (Homo sapiens, UniProt Q15139)", "T3 construct": "purchased Eurofins Discovery Services (KinaseProfiler)", "procedure": "as §1"}, "[4]": {"biological_target": "T4, DDR1(h) (Homo sapiens, UniProt Q08345)", "T4 construct": "purchased Eurofins Discovery Services (KinaseProfiler)", "procedure": "as §1"}, "[5]": {"biological_target": "T5, TAO3(h) (Homo sapiens, UniProt Q9H2K8)", "T5 construct": "purchased Eurofins Discovery Services (KinaseProfiler)", "procedure": "as §1"}, "[6]": {"biological_target": "T6, MEK1(h) (Homo sapiens, UniProt Q02750)", "T6 construct": "purchased Eurofins Discovery Services (KinaseProfiler)", "procedure": "as §1"}, "[7]": {"biological_target": "T7, ErbB4(h) (Homo sapiens, UniProt Q15303)", "T7 construct": "purchased Eurofins Discovery Services (KinaseProfiler)", "procedure": "as §1"}, "[8]": {"biological_target": "T8, TAK1(h) (Homo sapiens, UniProt O43318)", "T8 construct": "purchased Eurofins Discovery Services (KinaseProfiler)", "procedure": "as §1"}, "[9]": {"biological_target": "T9, SRPK2(h) (Homo sapiens, UniProt P78362)", "T9 construct": "purchased Eurofins Discovery Services (KinaseProfiler)", "procedure": "as §1"}, "[10]": {"biological_target": "T10, SIK2(h) (Homo sapiens, UniProt Q9H0K1)", "T10 construct": "purchased Eurofins Discovery Services (KinaseProfiler)", "procedure": "as §1"}, "[11]": {"biological_target": "T11, IRR(h) (Homo sapiens, UniProt P14616)", "T11 construct": "purchased Eurofins Discovery Services (KinaseProfiler)", "procedure": "as §1"}, "[12]": {"biological_target": "T12, Cdc7/cyclinB1(h) (Homo sapiens, UniProt O00311)", "T12 construct": "purchased Eurofins Discovery Services (KinaseProfiler)", "procedure": "as §1"}, "[13]": {"biological_target": "T13, LIMK1(h) (Homo sapiens, UniProt P53667)", "T13 construct": "purchased Eurofins Discovery Services (KinaseProfiler)", "procedure": "as §1"}, "[14]": {"biological_target": "T14, CK2α1(h) (Homo sapiens, UniProt P68400)", "T14 construct": "purchased Eurofins Discovery Services (KinaseProfiler)", "procedure": "as §1"}, "[15]": {"biological_target": "T15, Fms(Y969C)(h) (Homo sapiens, UniProt P07333, Y969C)", "T15 construct": "purchased Eurofins Discovery Services (KinaseProfiler)", "procedure": "as §1"}, "[16]": {"biological_target": "T16, HIPK3(h) (Homo sapiens, UniProt Q9H422)", "T16 construct": "purchased Eurofins Discovery Services (KinaseProfiler)", "procedure": "as §1"}, "[17]": {"biological_target": "T17, STK32A(h) (Homo sapiens, UniProt Q8WU08)", "T17 construct": "purchased Eurofins Discovery Services (KinaseProfiler)", "procedure": "as §1"}, "[18]": {"biological_target": "T18, ALK1(h) (Homo sapiens, UniProt P37023)", "T18 construct": "purchased Eurofins Discovery Services (KinaseProfiler)", "T18 sequence (P37023 22-503)": "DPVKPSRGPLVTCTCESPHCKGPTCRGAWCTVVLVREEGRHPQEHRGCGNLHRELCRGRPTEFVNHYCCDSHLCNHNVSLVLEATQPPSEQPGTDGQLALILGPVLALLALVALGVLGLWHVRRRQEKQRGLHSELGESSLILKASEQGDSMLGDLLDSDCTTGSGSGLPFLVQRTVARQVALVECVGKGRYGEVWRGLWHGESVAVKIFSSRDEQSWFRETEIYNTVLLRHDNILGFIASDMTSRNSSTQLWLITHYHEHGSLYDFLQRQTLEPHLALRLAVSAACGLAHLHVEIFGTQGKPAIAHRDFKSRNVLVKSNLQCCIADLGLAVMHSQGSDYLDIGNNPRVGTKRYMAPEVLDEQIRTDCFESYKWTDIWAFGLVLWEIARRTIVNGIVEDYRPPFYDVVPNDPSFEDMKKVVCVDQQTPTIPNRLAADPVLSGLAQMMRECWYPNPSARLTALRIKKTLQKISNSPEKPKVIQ", "procedure": "as §1"}, "[19]": {"biological_target": "T19, PKD2(h) (Homo sapiens, UniProt Q9BZL6)", "T19 construct": "purchased Eurofins Discovery Services (KinaseProfiler)", "procedure": "as §1"}, "[20]": {"biological_target": "T20, PKCζ(h) (Homo sapiens, UniProt Q05513)", "T20 construct": "purchased Eurofins Discovery Services (KinaseProfiler)", "procedure": "as §1"}, "[21]": {"biological_target": "T21, WNK1(h) (Homo sapiens, UniProt Q9H4A3)", "T21 construct": "purchased Eurofins Discovery Services (KinaseProfiler)", "procedure": "as §1"}, "[22]": {"biological_target": "T22, IR(h) (Homo sapiens, UniProt P06213)", "T22 construct": "purchased Eurofins Discovery Services (KinaseProfiler)", "T22 sequence (P06213 28-1382)": "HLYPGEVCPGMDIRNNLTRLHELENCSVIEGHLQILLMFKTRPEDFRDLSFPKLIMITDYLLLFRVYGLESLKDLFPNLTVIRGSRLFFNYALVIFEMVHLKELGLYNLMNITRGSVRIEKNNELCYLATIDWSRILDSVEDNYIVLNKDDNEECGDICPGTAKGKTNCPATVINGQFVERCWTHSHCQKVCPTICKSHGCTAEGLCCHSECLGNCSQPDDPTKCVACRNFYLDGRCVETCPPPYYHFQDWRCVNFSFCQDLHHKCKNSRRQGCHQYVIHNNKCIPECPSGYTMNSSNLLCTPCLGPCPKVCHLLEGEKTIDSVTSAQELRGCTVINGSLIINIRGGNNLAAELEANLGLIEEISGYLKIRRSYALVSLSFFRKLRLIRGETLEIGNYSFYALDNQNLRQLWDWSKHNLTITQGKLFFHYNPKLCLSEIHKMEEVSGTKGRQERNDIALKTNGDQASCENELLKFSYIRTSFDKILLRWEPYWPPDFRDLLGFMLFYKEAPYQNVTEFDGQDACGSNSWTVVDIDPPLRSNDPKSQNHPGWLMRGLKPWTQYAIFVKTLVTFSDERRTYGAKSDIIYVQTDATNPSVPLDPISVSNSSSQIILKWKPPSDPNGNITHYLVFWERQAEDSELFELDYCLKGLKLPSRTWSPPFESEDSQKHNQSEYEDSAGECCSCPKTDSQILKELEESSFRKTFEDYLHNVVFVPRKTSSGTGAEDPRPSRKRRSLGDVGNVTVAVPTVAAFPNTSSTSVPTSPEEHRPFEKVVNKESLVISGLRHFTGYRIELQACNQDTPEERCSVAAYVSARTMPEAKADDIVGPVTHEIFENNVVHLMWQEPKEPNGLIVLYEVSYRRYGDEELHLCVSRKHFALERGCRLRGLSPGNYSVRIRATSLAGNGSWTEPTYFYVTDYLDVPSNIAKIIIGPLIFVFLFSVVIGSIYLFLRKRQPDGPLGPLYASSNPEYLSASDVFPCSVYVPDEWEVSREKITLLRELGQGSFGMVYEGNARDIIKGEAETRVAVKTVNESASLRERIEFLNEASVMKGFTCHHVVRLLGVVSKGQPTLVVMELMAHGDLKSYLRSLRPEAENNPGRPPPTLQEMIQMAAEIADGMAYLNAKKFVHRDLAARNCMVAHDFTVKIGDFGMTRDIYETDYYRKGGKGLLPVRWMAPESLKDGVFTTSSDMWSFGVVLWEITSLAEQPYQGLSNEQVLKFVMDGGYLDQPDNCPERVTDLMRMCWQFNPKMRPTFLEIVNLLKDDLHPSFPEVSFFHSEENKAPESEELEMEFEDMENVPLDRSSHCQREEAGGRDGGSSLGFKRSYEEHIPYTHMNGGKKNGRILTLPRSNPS", "procedure": "as §1"}, "[23]": {"biological_target": "T23, TLK2(h) (Homo sapiens, UniProt Q86UE8)", "T23 construct": "purchased Eurofins Discovery Services (KinaseProfiler)", "procedure": "as §1"}, "[24]": {"biological_target": "T24, CLIK1(h) (Homo sapiens, UniProt Q8TDR2)", "T24 construct": "purchased Eurofins Discovery Services (KinaseProfiler)", "procedure": "as §1"}, "[25]": {"biological_target": "T25, MAPK2(h) (Homo sapiens, UniProt P28482)", "T25 construct": "purchased Eurofins Discovery Services (KinaseProfiler)", "procedure": "as §1"}, "[26]": {"biological_target": "T26, TAO2(h) (Homo sapiens, UniProt Q9UL54)", "T26 construct": "purchased Eurofins Discovery Services (KinaseProfiler)", "T26 sequence (Q9UL54 whole entry)": "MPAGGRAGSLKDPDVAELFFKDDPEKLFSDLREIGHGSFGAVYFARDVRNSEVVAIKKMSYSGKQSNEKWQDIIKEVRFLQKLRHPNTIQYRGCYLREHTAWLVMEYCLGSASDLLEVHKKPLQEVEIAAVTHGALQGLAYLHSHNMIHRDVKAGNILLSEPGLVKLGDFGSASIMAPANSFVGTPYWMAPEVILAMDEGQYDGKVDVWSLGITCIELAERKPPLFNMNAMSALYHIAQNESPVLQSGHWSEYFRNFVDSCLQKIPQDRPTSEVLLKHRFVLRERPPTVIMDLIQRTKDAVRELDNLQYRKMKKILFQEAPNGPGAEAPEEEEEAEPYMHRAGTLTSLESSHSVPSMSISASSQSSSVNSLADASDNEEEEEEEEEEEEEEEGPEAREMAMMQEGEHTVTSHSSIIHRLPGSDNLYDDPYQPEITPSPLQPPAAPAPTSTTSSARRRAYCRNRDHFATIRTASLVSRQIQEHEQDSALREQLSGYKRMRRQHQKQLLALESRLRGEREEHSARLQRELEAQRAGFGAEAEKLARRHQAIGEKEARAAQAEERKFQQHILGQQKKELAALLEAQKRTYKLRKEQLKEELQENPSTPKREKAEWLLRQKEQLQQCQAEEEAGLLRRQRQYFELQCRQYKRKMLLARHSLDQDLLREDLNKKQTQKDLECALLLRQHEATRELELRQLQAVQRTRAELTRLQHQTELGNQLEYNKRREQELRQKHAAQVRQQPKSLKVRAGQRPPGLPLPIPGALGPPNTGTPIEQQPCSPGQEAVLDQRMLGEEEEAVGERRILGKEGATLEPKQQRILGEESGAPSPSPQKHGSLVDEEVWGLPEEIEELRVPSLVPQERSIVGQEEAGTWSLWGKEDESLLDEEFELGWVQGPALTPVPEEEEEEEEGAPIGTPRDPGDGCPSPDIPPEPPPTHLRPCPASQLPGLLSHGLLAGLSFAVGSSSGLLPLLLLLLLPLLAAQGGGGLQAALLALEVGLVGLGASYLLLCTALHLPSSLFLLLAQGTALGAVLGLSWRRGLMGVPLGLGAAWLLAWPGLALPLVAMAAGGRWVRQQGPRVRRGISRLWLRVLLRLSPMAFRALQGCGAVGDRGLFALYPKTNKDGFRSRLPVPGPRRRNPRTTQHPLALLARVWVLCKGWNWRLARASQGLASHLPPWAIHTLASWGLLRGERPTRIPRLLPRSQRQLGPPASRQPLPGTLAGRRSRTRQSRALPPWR", "procedure": "as §1"}, "[27]": {"biological_target": "T27, PDGFRα(h) (Homo sapiens, UniProt P16234)", "T27 construct": "purchased Eurofins Discovery Services (KinaseProfiler)", "T27 sequence (P16234 24-1089)": "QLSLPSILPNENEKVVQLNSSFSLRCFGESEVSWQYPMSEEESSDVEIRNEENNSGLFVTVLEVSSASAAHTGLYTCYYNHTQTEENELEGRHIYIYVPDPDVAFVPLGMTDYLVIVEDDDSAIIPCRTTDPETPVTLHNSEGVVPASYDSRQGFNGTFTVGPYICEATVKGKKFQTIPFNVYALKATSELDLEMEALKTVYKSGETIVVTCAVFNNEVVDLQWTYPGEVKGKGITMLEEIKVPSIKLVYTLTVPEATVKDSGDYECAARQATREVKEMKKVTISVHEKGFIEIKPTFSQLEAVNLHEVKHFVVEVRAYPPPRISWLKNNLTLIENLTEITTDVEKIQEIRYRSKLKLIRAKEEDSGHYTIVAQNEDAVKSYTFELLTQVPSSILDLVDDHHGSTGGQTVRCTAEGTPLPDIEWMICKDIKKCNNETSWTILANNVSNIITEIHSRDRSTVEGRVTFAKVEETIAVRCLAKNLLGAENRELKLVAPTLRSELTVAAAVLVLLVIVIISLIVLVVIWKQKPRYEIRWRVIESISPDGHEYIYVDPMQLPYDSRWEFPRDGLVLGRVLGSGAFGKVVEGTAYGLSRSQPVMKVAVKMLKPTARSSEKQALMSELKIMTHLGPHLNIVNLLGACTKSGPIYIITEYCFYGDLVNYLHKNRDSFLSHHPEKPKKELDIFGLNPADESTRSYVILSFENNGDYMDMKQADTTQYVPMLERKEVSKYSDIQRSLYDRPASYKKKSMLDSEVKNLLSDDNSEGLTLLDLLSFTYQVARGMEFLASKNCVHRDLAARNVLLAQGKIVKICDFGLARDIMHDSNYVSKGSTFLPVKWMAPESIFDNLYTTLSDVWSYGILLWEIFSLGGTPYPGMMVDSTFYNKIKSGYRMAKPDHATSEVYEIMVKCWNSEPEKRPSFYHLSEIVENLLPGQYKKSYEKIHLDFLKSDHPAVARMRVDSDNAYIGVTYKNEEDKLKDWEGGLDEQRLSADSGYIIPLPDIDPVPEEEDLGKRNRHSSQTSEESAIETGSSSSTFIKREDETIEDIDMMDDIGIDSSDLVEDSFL", "procedure": "as §1"}, "[28]": {"biological_target": "T28, EphA3(h) (Homo sapiens, UniProt P29320)", "T28 construct": "purchased Eurofins Discovery Services (KinaseProfiler)", "procedure": "as §1"}, "[29]": {"biological_target": "T29, IRAK1(h) (Homo sapiens, UniProt P51617)", "T29 construct": "purchased Eurofins Discovery Services (KinaseProfiler)", "procedure": "as §1"}, "[30]": {"biological_target": "T30, PI3 Kinase (p110b/p85b)(m) (Mus musculus, UniProt Q8BTI9)", "T30 construct": "purchased Eurofins Discovery Services (KinaseProfiler)", "procedure": "as §1"}, "[31]": {"biological_target": "T31, PKG1α(h) (Homo sapiens, UniProt Q13976)", "T31 construct": "purchased Eurofins Discovery Services (KinaseProfiler)", "procedure": "as §1"}, "[32]": {"biological_target": "T32, Flt3(h) (Homo sapiens, UniProt P36888)", "T32 construct": "purchased Eurofins Discovery Services (KinaseProfiler)", "procedure": "as §1"}, "[33]": {"biological_target": "T33, Rsk1(h) (Homo sapiens, UniProt Q15418)", "T33 construct": "purchased Eurofins Discovery Services (KinaseProfiler)", "procedure": "as §1"}, "[34]": {"biological_target": "T34, ZAK(h) (Homo sapiens, UniProt Q9NYL2)", "T34 construct": "purchased Eurofins Discovery Services (KinaseProfiler)", "T34 sequence (Q9NYL2 whole entry)": "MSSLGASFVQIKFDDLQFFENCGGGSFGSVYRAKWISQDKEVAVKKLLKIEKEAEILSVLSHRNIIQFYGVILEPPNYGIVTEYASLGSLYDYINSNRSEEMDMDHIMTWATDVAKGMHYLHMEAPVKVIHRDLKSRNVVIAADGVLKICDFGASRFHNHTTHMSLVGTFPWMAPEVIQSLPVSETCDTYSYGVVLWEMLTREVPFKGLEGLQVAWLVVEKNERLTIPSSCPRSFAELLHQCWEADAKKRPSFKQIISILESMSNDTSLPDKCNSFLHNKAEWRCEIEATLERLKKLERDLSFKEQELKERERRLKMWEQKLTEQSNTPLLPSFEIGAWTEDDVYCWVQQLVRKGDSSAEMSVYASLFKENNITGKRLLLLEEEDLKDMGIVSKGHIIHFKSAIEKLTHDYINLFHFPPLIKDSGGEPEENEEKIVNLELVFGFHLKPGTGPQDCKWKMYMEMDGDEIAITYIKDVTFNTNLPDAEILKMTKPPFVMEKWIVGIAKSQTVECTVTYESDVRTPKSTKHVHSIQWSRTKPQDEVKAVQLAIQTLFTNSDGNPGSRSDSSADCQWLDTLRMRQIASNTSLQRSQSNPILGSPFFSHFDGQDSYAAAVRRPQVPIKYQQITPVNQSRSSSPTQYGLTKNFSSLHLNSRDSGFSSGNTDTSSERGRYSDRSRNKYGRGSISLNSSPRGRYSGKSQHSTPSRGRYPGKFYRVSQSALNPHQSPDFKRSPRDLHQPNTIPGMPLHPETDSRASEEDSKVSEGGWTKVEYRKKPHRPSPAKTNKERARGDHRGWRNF", "procedure": "as §1"}, "[35]": {"biological_target": "T35, PEK(h) (Homo sapiens, UniProt Q9NZJ5)", "T35 construct": "purchased Eurofins Discovery Services (KinaseProfiler)", "procedure": "as §1"}, "[36]": {"biological_target": "T36, CDK14/cyclinY(h) (Homo sapiens, UniProt O94921)", "T36 construct": "purchased Eurofins Discovery Services (KinaseProfiler)", "procedure": "as §1"}, "[37]": {"biological_target": "T37, CK1γ2(h) (Homo sapiens, UniProt P78368)", "T37 construct": "purchased Eurofins Discovery Services (KinaseProfiler)", "procedure": "as §1"}, "[38]": {"biological_target": "T38, CDK2/cyclinE(h) (Homo sapiens, UniProt P24941)", "T38 construct": "purchased Eurofins Discovery Services (KinaseProfiler)", "procedure": "as §1"}}}
{"smiles": "COc1cc(OC)cc(N(CCN[C@H](C)CO)c2ccc3ncc(-c4cnn(C)c4)c(=O)n3c2)c1", "note": "[RK-019, (R)-7-((3,5-dimethoxyphenyl) (2-((1-hydroxypropan-2-yl)amino)ethyl)amino)-3-(1-methyl-1H-pyrazol-4-yl)-4H-pyrido [1,2-a]pyrimidin-4-one]", "values": [{"measurement": "activity at 1 µM", "setting": "[1]", "result": 92, "unit": "%"}, {"measurement": "activity at 1 µM", "setting": "[2]", "result": 94, "unit": "%"}, {"measurement": "activity at 1 µM", "setting": "[3]", "result": 107, "unit": "%"}, {"measurement": "activity at 1 µM", "setting": "[4]", "result": 19, "unit": "%"}, {"measurement": "activity at 1 µM", "setting": "[5]", "result": 100, "unit": "%"}, {"measurement": "activity at 1 µM", "setting": "[6]", "result": 79, "unit": "%"}, {"measurement": "activity at 1 µM", "setting": "[7]", "result": 105, "unit": "%"}, {"measurement": "activity at 1 µM", "setting": "[8]", "result": 102, "unit": "%"}, {"measurement": "activity at 1 µM", "setting": "[9]", "result": 134, "unit": "%"}, {"measurement": "activity at 1 µM", "setting": "[10]", "result": 99, "unit": "%"}, {"measurement": "activity at 1 µM", "setting": "[11]", "result": 104, "unit": "%"}, {"measurement": "activity at 1 µM", "setting": "[12]", "result": 87, "unit": "%"}, {"measurement": "activity at 1 µM", "setting": "[13]", "result": 103, "unit": "%"}, {"measurement": "activity at 1 µM", "setting": "[14]", "result": 95, "unit": "%"}, {"measurement": "activity at 1 µM", "setting": "[15]", "result": 31, "unit": "%"}, {"measurement": "activity at 1 µM", "setting": "[16]", "result": 94, "unit": "%"}, {"measurement": "activity at 1 µM", "setting": "[17]", "result": 86, "unit": "%"}, {"measurement": "activity at 1 µM", "setting": "[18]", "result": 98, "unit": "%"}, {"measurement": "activity at 1 µM", "setting": "[19]", "result": 98, "unit": "%"}, {"measurement": "activity at 1 µM", "setting": "[20]", "result": 91, "unit": "%"}, {"measurement": "activity at 1 µM", "setting": "[21]", "result": 95, "unit": "%"}, {"measurement": "activity at 1 µM", "setting": "[22]", "result": 118, "unit": "%"}, {"measurement": "activity at 1 µM", "setting": "[23]", "result": 124, "unit": "%"}, {"measurement": "activity at 1 µM", "setting": "[24]", "result": 102, "unit": "%"}, {"measurement": "activity at 1 µM", "setting": "[25]", "result": 115, "unit": "%"}, {"measurement": "activity at 1 µM", "setting": "[26]", "result": 95, "unit": "%"}, {"measurement": "activity at 1 µM", "setting": "[27]", "result": 50, "unit": "%"}, {"measurement": "activity at 1 µM", "setting": "[28]", "result": 60, "unit": "%"}, {"measurement": "activity at 1 µM", "setting": "[29]", "result": 103, "unit": "%"}, {"measurement": "activity at 1 µM", "setting": "[30]", "result": 99, "unit": "%"}, {"measurement": "activity at 1 µM", "setting": "[31]", "result": 110, "unit": "%"}, {"measurement": "activity at 1 µM", "setting": "[32]", "result": 123, "unit": "%"}, {"measurement": "activity at 1 µM", "setting": "[33]", "result": 120, "unit": "%"}, {"measurement": "activity at 1 µM", "setting": "[34]", "result": 80, "unit": "%"}, {"measurement": "activity at 1 µM", "setting": "[35]", "result": 85, "unit": "%"}, {"measurement": "activity at 1 µM", "setting": "[36]", "result": 91, "unit": "%"}, {"measurement": "activity at 1 µM", "setting": "[37]", "result": 97, "unit": "%"}, {"measurement": "activity at 1 µM", "setting": "[38]", "result": 123, "unit": "%"}]}
